The test deals with ARL3 (Homo sapiens, UniProt P36405). Description: microscale thermophoresis (Monolith NT.[…]). The test is classed as binding. For orientation: In MST a laser heats a spot of the sample, and binding alters the fluorescence response.

In general, Kd refers to the concentration at which binding is half-saturated. A lower Kd goes with a tighter complex.

Sequence of ARL3 (P36405 2-182): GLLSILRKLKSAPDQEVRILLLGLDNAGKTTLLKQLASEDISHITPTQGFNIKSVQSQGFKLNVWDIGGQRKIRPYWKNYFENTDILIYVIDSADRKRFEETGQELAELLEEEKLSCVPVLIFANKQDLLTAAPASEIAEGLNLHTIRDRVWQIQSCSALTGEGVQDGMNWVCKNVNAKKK

Turning to `Cc1c(-c2ccc(N3CCc4cccc(C(=O)Nc5nc6ccccc6s5)c4C3)nc2C(=O)O)cnn1CC12CC3CC(CC(C3)C1)C2` [A-1331852], the Kd came out at 12 µM.

Values taken from publication PMC12713097, “ARL3 Enhances ERα Stability via USP10 Deubiquitination to Promote Endocrine Resistance and Drive Mitochondrial Metabolic Reprogramming in HR+ Breast Cancer” (Advanced Science, 2025).
